Measured values taken from US9700533B2, “Maternal chelation for embryo, fetal and infant benefit” (priority 2005, dated 2017).
Read-outs that look alike come from different tables or passages of the source.

What was measured:
[1] = Chelation-provoked urine test, urinary cadmium; type: in vivo, human
Protocol: (§1) The terms “diagnostic provocation” and “chelation-provoked urine tests” and related terms refer to a procedure whereby the patient is administered one of more dosages of chelators, after which the patient's urine is collected for a defined period of time. The collected urine is analyzed for metal content, the metal having been removed from the patient's body by the chelators. The results of this procedure can indicate which metals are present in the patient's body and the approximate levels of the metals, which is subsequently used in designing a course of chelation therapy.
(§2) The metals may be measured with or without prior chelation provocation. The standard values accepted by medical laboratories are measured without chelation provocation. Treatment with chelation medication mobilizes metal stores within in the body to be detected in the urine, thus values obtained post-provocation will be increased.

[2] = Chelation-provoked urine test, urinary tin; type: in vivo, human; conditions: for urinary tin: Case 14
Protocol: as §1, §2

[3] = Chelation-provoked urine test, urinary nickel; type: in vivo, human
Protocol: as §1, §2

[4] = Chelation-provoked urine test, urinary uranium; type: in vivo, human; conditions: for urinary uranium, times the reference range: Case 9
Protocol: as §1, §2

[5] = Chelation-provoked urine test, urinary tungsten; type: in vivo, human; conditions: Case 7, 6 hour urine
Protocol: as §1, §2

[6] = not given; remark: listed apart in the source
[7] = Case 14
Protocol: as §1, §2

[8] = Case 14; remark: listed apart in the source
Protocol: as §1, §2

[9] = Chelation-provoked urine test, urinary lead
Protocol: as §1, §2

[10] = Chelation-provoked urine test, metals revealed (in words); conditions: for metals excreted on provocation: Case 9, postpartum
Protocol: as §1, §2

[11] = Maternal chelation treatment, pregnancy, child and patient outcome; type: in vivo, human; conditions: for chronic fatigue / neurological development of the baby: Case 5; for chronic fatigue: calcium EDTA + vitamin C IV together with oral DMSA; for neurological development of the baby: parent treated preconceptionally with calcium EDTA + vitamin C IV and oral DMSA
[12] = Case 5
Protocol: as §1, §2

[13] = Case 14, DMPS provocation October 2003, before treatment
[14] = Case 14, DMPS series, follow up October 2005 after oral DMSA and essential daily defense
[15] = Case 14, after series of intravenous DMPS chelation treatments October 2003 to May 2004
[16] = DMPS provocation October 2003, before treatment
[17] = DMPS series, follow up October 2005 after oral DMSA and essential daily defense
[18] = after series of intravenous DMPS chelation treatments October 2003 to May 2004
[19] = Case 7, one 300-mg capsule DMPS, 6 hour urine
[20] = Case 5, DMPS chelation provocation, before treatment
[21] = Case 5, DMPS provocation, previously (before treatment)
[22] = Case 4, after 4 months oral DMSA, 4 x 250 mg three times daily, 3 days per week
[23] = Case 4, four capsules DMSA 250 mg, 6 hour urine, before treatment
[24] = Case 2, oral DMSA 250 mg three times a day, 24 hour urine
[25] = Case 7, one 250-mg capsule DMSA orally, 6 hour urine
[26] = DMSA 1000 mg PO x1, 6 hour urine
[27] = Case 5, EDTA provocation, before treatment
[28] = Case 13, 3 grams EDTA and 3 grams vitamin C intravenous push, 6 hour collection
[29] = Case 14, EDTA series, June 2004 after intravenous EDTA and DMPS chelation treatments
[30] = Case 14, EDTA series, long-term follow up October 2005 after a little DMSA with essential daily defense
[31] = Case 14, intravenous EDTA provocation January 2004, during the treatment period
[32] = EDTA series, June 2004 after intravenous EDTA and DMPS chelation treatments
[33] = EDTA series, long-term follow up October 2005 after a little DMSA with essential daily defense
[34] = intravenous EDTA provocation January 2004, during the treatment period
[35] = Case 5, EDTA provocation, previously (before treatment)
[36] = 3 grams calcium EDTA in 100 cc NS over 30 minutes, 6 hour urine

With O=S(=O)(O)CC(S)CS (stereo not shown) [DMPS, Dimercaptopropanesulfonic Acid] the urinary cadmium [1, 13] was 0.82 (normal <0.64) mcg/g creatinine, the urinary cadmium [1, 14] was 0.17 mcg/g creatinine and the urinary cadmium [1, 15] was 0.16 mcg/g creatinine. For the same molecule, the urinary tin [2, 16] was 10.4 (normal <2.04) mcg/g creatinine, the urinary tin [2, 17] was 3.03 mcg/g creatinine and the urinary tin [2, 18] was 0.4 mcg/g creatinine. The urinary nickel [3, 19] was 132 (normal <9.5), the urinary nickel [3, 13] was 9.3 (normal <9.5) mcg/g creatinine and the urinary nickel [3, 14] was 0.7 mcg/g creatinine. For the same molecule, the urinary nickel [3, 15] was 3.2 mcg/g creatinine, the urinary uranium [4, 19] was 0.034 (normal <0.013) and the urinary uranium [4, 13] was 0.042 (normal <0.026) mcg/g creatinine. The urinary uranium [4, 14] was 3 mcg/g creatinine, the urinary uranium [4, 15] was 0 mcg/g creatinine and the urinary tungsten ([5]; one 300-mg capsule DMPS) was 7.07 (normal <0.34). The urinary mercury [20] was 38.55 (normal <6.97) mcg/g creatinine, the “urinary mercury, times normal” value [21] was 5 × normal and the urinary mercury [13] was 7.3 (normal <2.14) mcg/g creatinine. The urinary mercury [14] was 4.6 mcg/g creatinine, the urinary mercury [15] was 6 mcg/g creatinine and the urinary antimony [6, 20] was 0.84 (normal <0.14) mcg/g creatinine. For the same molecule, the “urinary antimony, times normal” value [6, 21] was 6 × normal, the urinary antimony [6, 13] was 0.48 (normal <0.14) mcg/g creatinine and the urinary antimony [6, 14] was 0.18 mcg/g creatinine. For the same molecule, the urinary antimony [6, 15] was 0.05 mcg/g creatinine, the urinary arsenic [7, 16] was 159 (normal <50) mcg/g creatinine and the urinary arsenic [7, 17] was 34 mcg/g creatinine. The urinary arsenic [7, 18] was 20 mcg/g creatinine, the urinary thorium [8, 16] was 0 (normal <0.124) mcg/g creatinine and the urinary thorium [8, 17] was 0 mcg/g creatinine. For the same molecule, the urinary thorium [8, 18] was 0.019 mcg/g creatinine, the urinary lead [9, 20] was 6.39 (normal <1.41) mcg/g creatinine and the “urinary lead, times normal” value [9, 21] was 4 × normal. The urinary lead [9, 19] was 4.6 (normal <1.41), the urinary lead [9, 13] was 7.9 (normal <1.41) mcg/g creatinine and the urinary lead [9, 14] was 2.6 mcg/g creatinine. The urinary lead [9, 15] was 0.9 mcg/g creatinine, the “metals revealed on provocation” value ([10]; Case 10, DMPS 300 mg PO x1, 6 hour urine) was “elevated levels of lead, mercury, aluminum, antimony, cadmium, nickel, tin, tungsten and uranium” and the “metals revealed on provocation” value ([10]; Case 12, DMPS 300 mg PO x2, 6 hour urine) was “marked elevation of nickel as well as abnormally elevation of arsenic, cadmium and lead”.

For O=C(O)C(S)C(S)C(=O)O (stereo not shown) [DMSA, Dimercaptosuccinic Acid], the “urinary cadmium, follow up provocation” value [1, 22] was 0.18 mcg/g creatinine, the provoked urinary cadmium [1, 23] was 1.79 mcg/g creatinine and the “urinary tin after provocation” value [2, 24] was 9 mcg/g creatinine. For the same molecule, the “urinary tin, follow up provocation” value [2, 22] was 0.9 mcg/g creatinine, the provoked urinary tin [2, 23] was 12.5 mcg/g creatinine and the urinary nickel [3, 25] was 77 (normal <9.5) mcg/g creatinine. For the same molecule, the urinary uranium [4, 25] was 0.05 (normal <0.031) mcg/g creatinine, the “urinary uranium, times the reference range” value [4, 26] was greater than 100 × the reference range and the urinary tungsten ([5]; one 250-mg capsule DMSA orally) was 6.41 (normal <0.34) mcg/g creatinine. For the same molecule, the “chronic fatigue during treatment” value ([11]; Case 4, during 4 months oral DMSA) was “chronic fatigue resolved”, the chronic fatigue [11] was “chronic fatigue improved” and the “neurological development of the baby” value [11] was “above average neurological development”. The “follow-up chelation-provoked urine, total body lead” value ([9]; Case 1, after 15 cycles DMSA three capsules three times a day, three days a week) was “a decrease in total body lead”, the “urinary lead concentration on provocation” value ([9]; Case 1, oral DMSA 250 mg three times a day, 24 hour urine) was 20 mcg/g creatinine and the “urinary lead concentration after provocation” value [9, 24] was 14 mcg/g creatinine. For the same molecule, the “urinary lead, follow up provocation” value [9, 22] was 1.34 mcg/g creatinine, the provoked urinary lead [9, 23] was 13.6 mcg/g creatinine and the urinary lead [9, 25] was 4.79 (normal <1.41) mcg/g creatinine. For the same molecule, the “metals revealed by chelation-provoked urine test” value ([10]; Case 6, oral DMSA challenge three days after delivery) was “presence of both lead and mercury”, the “metals excreted on provocation” value [10, 26] was “excretion of a number of metals, including lead, mercury, cadmium and uranium” and the “metals revealed on challenge” value ([10]; Case 10, DMSA 250 mg PO x1, 6 hour urine) was “elevated amounts of lead, aluminum, antimony, barium, nickel, gallium, tin, tungsten, and uranium”. The “metals revealed on provocation” value ([10]; Case 11, 1000 mg DMSA orally x1, 6 hour urine) was “elevated levels of lead, mercury, tin, uranium and tungsten”.

With O=C(O)CN(CCN(CC(=O)O)CC(=O)O)CC(=O)O [EDTA, Ethylenediamine Tetra-acetic Acid] the urinary cadmium [1, 27] was 3.18 (normal <0.76) mcg/g creatinine, the urinary cadmium [1, 28] was 0.86 mcg/g creatinine and the urinary cadmium [1, 29] was 1.75 mcg/g creatinine. It also gave a urinary cadmium [1, 30] of 2.66 mcg/g creatinine, a urinary cadmium [1, 31] of 1.59 mcg/g creatinine and a urinary tin [2, 32] of 0.3 mcg/g creatinine. The urinary tin [2, 33] was 0.4 mcg/g creatinine, the urinary tin [2, 34] was 0.6 mcg/g creatinine and the urinary nickel [3, 27] was 36.9 (normal <9.5) mcg/g creatinine. For the same molecule, the “urinary nickel, times normal” value [3, 35] was 4 × normal, the “urinary nickel, times normal” value ([3]; Case 5, repeat EDTA provocation after calcium EDTA + vitamin C IV and oral DMSA treatment) was 3 × normal and the urinary nickel [3, 29] was 30 mcg/g creatinine. For the same molecule, the urinary nickel [3, 30] was 26 mcg/g creatinine, the urinary nickel [3, 31] was 41 mcg/g creatinine and the urinary uranium [4, 27] was 0.33 (normal <0.013) mcg/g creatinine. For the same molecule, the “urinary uranium, times the reference range” value [4, 36] was greater than 40 × the reference range, the urinary uranium [4, 30] was 0.012 mcg/g creatinine and the “child outcome after delivery” value ([11]; Case 8, oral EDTA 3000 mg per day with vitamin C, selenium and garlic) was “healthy and neurologically normal”. For the same molecule, the delivery outcome ([11]; Case 8, parent with lead and mercury, oral EDTA 3000 mg per day with vitamin C 5000 mg per day, selenium 200 micrograms three times per day, garlic 6000 mg per day) was “normal delivery with no evidence of fetal distress”, the “neurological development of the child” value ([11]; Case 13, child, parents had ten intravenous EDTA chelations) was “admirable neurological development” and the urinary mercury [28] was 3.09 mcg/g creatinine. For the same molecule, the urinary mercury [29] was 0 mcg/g creatinine, the urinary mercury [30] was 9.4 mcg/g creatinine and the urinary mercury [31] was 0 mcg/g creatinine. The urinary antimony [6, 29] was 0.15 mcg/g creatinine, the urinary antimony [6, 30] was 0.09 mcg/g creatinine and the urinary antimony [6, 31] was 0.18 mcg/g creatinine. The urinary aluminum ([12]; EDTA provocation, before treatment) was 176.8 (normal <98.7) mcg/g creatinine, the “urinary aluminum, times normal” value ([12]; EDTA provocation, previously (before treatment)) was 2 × normal and the “urinary aluminum, times normal” value ([12]; repeat EDTA provocation after calcium EDTA + vitamin C IV and oral DMSA treatment) was 0.2 × normal. It also gave a urinary arsenic [7, 32] of 32 mcg/g creatinine, a urinary arsenic [7, 33] of 46 mcg/g creatinine and a urinary arsenic [7, 34] of 90 mcg/g creatinine. It also gave a urinary thorium [8, 32] of 0.06 mcg/g creatinine, a urinary thorium [8, 33] of 0 mcg/g creatinine and a urinary thorium [8, 34] of 0.22 mcg/g creatinine. The urinary lead [9, 27] was 25.14 (normal <1.41) mcg/g creatinine, the “urinary lead, times normal” value [9, 35] was 18 × normal and the “urinary lead, times normal” value ([9]; Case 5, repeat EDTA provocation after 3 g calcium EDTA + 3 g vitamin C IV two times per week and DMSA 500 mg per day orally) was 8 × normal. For the same molecule, the urinary lead [9, 28] was 6.15 mcg/g creatinine, the urinary lead [9, 29] was 5.5 mcg/g creatinine and the urinary lead [9, 30] was 7.97 mcg/g creatinine. For the same molecule, the urinary lead [9, 31] was 4.6 mcg/g creatinine, the “metals excreted on provocation” value [10, 36] was “significant excretion of lead, mercury, cadmium and uranium” and the “metals revealed on provocation” value ([10]; Case 11, 3 grams calcium EDTA in 100 cc normal saline IV over 30 minutes, 6 hour urine) was “elevated levels of lead, mercury, aluminum, cadmium, gadolinium, gallium, tin, tungsten, and uranium”.

In the case of CC(=O)N[C@@H](CS)C(=O)O [NAC, N-Acetyl-Cysteine], the “outcome of subsequent child” value ([11]; Case 3, 500 mg oral NAC per day throughout pregnancy, also vitamin C and selenium, previous child with attention deficit disorder) is reported as “did not have attention deficit disorder”.

For O=C([O-])CN(CCN(CC(=O)[O-])CC(=O)[O-])CC(=O)[O-].[Ca+2].[Na+].[Na+] [calcium EDTA], the chronic fatigue [11] was “chronic fatigue improved” and the “neurological development of the baby” value [11] was “above average neurological development”.
